{"source": "patent US11236047B2", "about": "(ASTEX THERAPEUTICS LIMITED, priority 2017, dated 2022)", "key": {"[1]": {"molecular_target": "MDM2-p53 interaction (Homo sapiens (Human), UniProt Q00987)", "sequence (Q00987 whole entry)": "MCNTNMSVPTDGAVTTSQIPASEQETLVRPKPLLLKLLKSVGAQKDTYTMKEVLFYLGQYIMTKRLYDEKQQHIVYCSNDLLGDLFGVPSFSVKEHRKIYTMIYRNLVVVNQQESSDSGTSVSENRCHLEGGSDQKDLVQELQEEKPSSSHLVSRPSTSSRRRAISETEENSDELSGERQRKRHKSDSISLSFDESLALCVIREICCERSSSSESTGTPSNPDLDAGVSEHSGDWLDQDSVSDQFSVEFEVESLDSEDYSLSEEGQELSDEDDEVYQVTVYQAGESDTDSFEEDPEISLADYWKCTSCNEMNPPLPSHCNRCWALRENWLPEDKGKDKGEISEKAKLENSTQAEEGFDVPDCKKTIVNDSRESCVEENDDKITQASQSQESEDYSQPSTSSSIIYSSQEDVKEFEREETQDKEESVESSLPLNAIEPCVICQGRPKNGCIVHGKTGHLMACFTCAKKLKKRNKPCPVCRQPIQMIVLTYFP", "details": "for inhibition at 0.001 µM: read-out: MDM2 % inhibition @0.0010; for inhibition at 0.03 µM: read-out: MDM2 % inhibition @0.030; for inhibition at 0.1 µM: read-out: MDM2 % inhibition @0.10"}, "[2]": {"system": "SJSA-1 cells", "assay": "Protocol B: SJSA-1 CellTiter-Glo luminescent cell viability assay", "details": "for pIC50: read-out: SJSA1 IC50, Protocol B, SJSA-1; for inhibition at 10 µM: SJSA-1, read-out: SJSA1 % inhibition at 10"}, "[3]": {"details": "read-out: SJSA1 IC50 (μM) (Protocol B), SJSA-1, Protocol B"}}, "note": "pIC50: −log10 of the molar value. Like-named read-outs stand apart in the source and are kept apart here."}
{"smiles": "CCC(O)(c1cc(F)c2c(c1)C(=O)N(Cc1ccc(C#N)cn1)[C@@]2(O[C@H]1CCOC1)c1ccc(Cl)cc1)c1ccn(C)n1", "note": "(single isomer, unassigned) [Example 336]", "values": [{"measurement": "inhibition at 0.001 µM", "setting": "[1]", "result": 56, "unit": "%"}, {"measurement": "pIC50", "setting": "[2]", "result": 6.80}]}
{"smiles": "Cn1cc(C(C)(O)c2cc(F)c3c(c2)C(=O)N(Cc2ncc(F)cc2F)[C@@]3(OCC2(O)CC2)c2ccc(Cl)cc2)cn1", "note": "(single isomer, unassigned) [Example 350]", "values": [{"measurement": "MDM2 % at stated concentration", "setting": "[1]; at 0.030 μM", "result": 54, "unit": "%@0.030"}, {"measurement": "IC50", "setting": "[2]; [3]", "result": 0.51, "unit": "µM"}]}
{"smiles": "Cn1cc(C(C)(O)c2cc(F)c3c(c2)C(=O)N(Cc2ncc(F)cc2F)[C@@]3(OCC2(O)CC2)c2ccc(Cl)cc2)cn1", "note": "(single isomer, unassigned) [Example 351]", "values": [{"measurement": "MDM2 % at stated concentration", "setting": "[1]; at 0.10 μM", "result": 25, "unit": "%@0.10"}, {"measurement": "IC50", "setting": "[2]; [3]", "result": 4.3, "unit": "µM"}]}
{"smiles": "CCC(O)(c1cc(F)c2c(c1)C(=O)N(Cc1ccc(C#N)cn1)[C@@]2(O[C@H]1CCOC1)c1ccc(Cl)cc1)c1cnn(C)c1", "note": "(single isomer, unassigned) [Example 358]", "values": [{"measurement": "MDM2 % at stated concentration", "setting": "[1]", "result": 74, "unit": "%@0.0010"}, {"measurement": "IC50", "setting": "[2]; [3]", "result": 0.039, "unit": "µM"}]}
{"smiles": "CCC(O)(c1cc(F)c2c(c1)C(=O)N(Cc1ccc(C#N)cn1)[C@@]2(O[C@H]1CCOC1)c1ccc(Cl)cc1)c1cnn(C)c1", "note": "(single isomer, unassigned) [Example 359]", "values": [{"measurement": "MDM2 % at stated concentration", "setting": "[1]; at 0.10 μM", "result": 50, "unit": "%@0.10"}, {"measurement": "IC50", "setting": "[2]; [3]", "result": 3.9, "unit": "µM"}]}
{"smiles": "CO[C@]1(c2ccc(Cl)cc2)c2c(F)cc(C(C)(O)C3CCN(C(C)=O)CC3)cc2C(=O)N1Cc1ncc(Cl)cc1CO", "note": "(single isomer, unassigned) [Example 424]", "values": [{"measurement": "inhibition at 0.003 µM", "setting": "[1]; read-out: MDM2 % inhibition @0.0030", "result": 45, "unit": "%"}, {"measurement": "IC50", "setting": "[2]; Homo sapiens, SJSA-1, read-out: SJSA1 IC50 (μM), Protocol B, SJSA-1", "result": 0.69, "unit": "µM"}]}
{"smiles": "CCC(O)(c1cc(F)c2c(c1)C(=O)N(Cc1ccc(C#N)nc1)[C@@]2(O[C@H]1CCOC1)c1ccc(Cl)cc1)c1cn(C)cn1", "note": "(single isomer, unassigned) [Example 432]", "values": [{"measurement": "inhibition at 0.03 µM", "setting": "[1]", "result": 45, "unit": "%"}, {"measurement": "pIC50", "setting": "[2]", "result": 5.21}]}
{"smiles": "CCC(O)(c1cc(F)c2c(c1)C(=O)N(Cc1ncc(Cl)cn1)[C@@]2(OCC1(CO)CC1)c1ccc(Cl)cc1)c1cn(C)cn1", "note": "(single isomer, unassigned) [Example 477]", "values": [{"measurement": "inhibition at 0.001 µM", "setting": "[1]", "result": 86, "unit": "%"}, {"measurement": "pIC50", "setting": "[2]", "result": 8.04}]}
{"smiles": "CCC(O)(c1cc(F)c2c(c1)C(=O)N(Cc1ncc(C#N)cn1)[C@@]2(OC[C@H]1C[C@H](O)C1)c1ccc(Cl)cc1)c1cn(C)cn1", "note": "(single isomer, unassigned) [Example 483]", "values": [{"measurement": "inhibition at 0.001 µM", "setting": "[1]", "result": 58, "unit": "%"}, {"measurement": "pIC50", "setting": "[2]", "result": 6.70}]}
{"smiles": "CCC(O)(c1cc(F)c2c(c1)C(=O)N(Cc1ncc(Cl)cn1)[C@@]2(OCCO)c1ccc(Cl)cc1)[C@H]1CC[C@H](O)CC1", "note": "(single isomer, unassigned) [Example 519]", "values": [{"measurement": "inhibition at 0.03 µM", "setting": "[1]", "result": 35, "unit": "%"}, {"measurement": "pIC50", "setting": "[2]", "result": 5.72}]}
{"smiles": "CCC(O)(CN1CCNCC1)c1cc(F)c2c(c1)C(=O)N(Cc1ncc(Cl)cn1)[C@@]2(OCC1(F)COC1)c1ccc(Cl)cc1", "note": "(single isomer, unassigned) [Example 539]", "values": [{"measurement": "inhibition at 0.001 µM", "setting": "[1]", "result": 41, "unit": "%"}, {"measurement": "pIC50", "setting": "[2]", "result": 7.04}]}
{"smiles": "CCC(O)(c1cc(F)c2c(c1)C(=O)N(Cc1ncc(Cl)cn1)[C@@]2(O[C@H]1CCOC1)c1ccc(Cl)cc1)C1(F)CCNCC1", "note": "(single isomer, unassigned) [Example 541]", "values": [{"measurement": "inhibition at 0.0003 µM", "setting": "[1]; read-out: MDM2 % inhibition @0.00030", "result": 64, "unit": "%"}, {"measurement": "pIC50", "setting": "[2]", "result": 7.85}]}
{"smiles": "COc1ccc(CN2C(=O)c3cc(C(C)(O)c4cnn(C)c4)cc(F)c3[C@]2(OCC2(O)CC2)c2ccc(Cl)cc2)nc1", "note": "(stereo partly drawn) [Example 228, (3R)-3-(4-chlorophenyl)-4-fluoro-6-[1-hydroxy-1-(1-methyl-1H-pyrazol-4-yl)ethyl]-3-[(1-hydroxycyclopropyl)methoxy]-2-[(5-methoxypyridin-2-yl)methyl]-2,3-dihydro-1H-isoindol-1-one]", "values": [{"measurement": "MDM2 % at stated concentration", "setting": "[1]; at 0.010 μM", "result": 61, "unit": "%@0.010"}, {"measurement": "IC50", "setting": "[2]; [3]", "result": 0.21, "unit": "µM"}]}
{"smiles": "COc1ccc(CN2C(=O)c3cc(C(C)(O)c4cnn(C)c4)cc(F)c3[C@]2(OCC2(O)CC2)c2ccc(Cl)cc2)nc1", "note": "(stereo partly drawn) [Example 347, (3R)-3-(4-chlorophenyl)-4-fluoro-6-[1-hydroxy-1-(1-methyl-1H-pyrazol-4-yl)ethyl]-3-[(1-hydroxycyclopropyl)methoxy]-2-[(5-methoxypyridin-2-yl)methyl]-2,3-dihydro-1H-isoindol-1-one]", "values": [{"measurement": "MDM2 % at stated concentration", "setting": "[1]; at 0.10 μM", "result": 63, "unit": "%@0.10"}, {"measurement": "IC50", "setting": "[2]; [3]", "result": 1.7, "unit": "µM"}]}
{"smiles": "CCC(O)(c1cc(F)c2c(c1)C(=O)N(Cc1ncc(Cl)cn1)[C@@]2(OCC1(C(N)=O)CC1)c1ccc(Cl)cc1)c1cn(C)cn1", "note": "(stereo partly drawn) [Example 485, 1-({[(1R)-1-(4-chlorophenyl)-2-[(5-chloropyrimidin-2-yl)methyl]-7-fluoro-5-[1-hydroxy-1-(1-methyl-1H-imidazol-4-yl)propyl]-3-oxo-2,3-dihydro-1H-isoindol-1-yl]oxy}methyl)cyclopropane-1-carboxamide]", "values": [{"measurement": "inhibition at 0.1 µM", "setting": "[1]", "result": 58, "unit": "%"}, {"measurement": "pIC50", "setting": "[2]", "result": 5.38}]}
{"smiles": "CCC(O)(c1cc(F)c2c(c1)C(=O)N(Cc1ncc(Cl)cc1O)[C@@]2(O[C@H]1C[C@@H](O)C1)c1ccc(Cl)cc1)c1cn(C)cn1", "note": "(stereo partly drawn) [Example 488, (3R)-2-[(5-chloro-3-hydroxypyridin-2-yl)methyl]-3-(4-chlorophenyl)-4-fluoro-6-[1-hydroxy-1-(1-methyl-1H-imidazol-4-yl)propyl]-3-[cis-3-hydroxycyclobutoxy]-2,3-dihydro-1H-isoindol-1-one]", "values": [{"measurement": "inhibition at 0.1 µM", "setting": "[1]", "result": 56, "unit": "%"}]}
{"smiles": "CCC(O)(c1cc(F)c2c(c1)C(=O)N(Cc1ccc(C#N)cn1)[C@@]2(OC[C@@H](C)O)c1ccc(Cl)cc1)C1(F)CCOCC1", "note": "(stereo partly drawn) [Example 498, 6-{[(1R)-1-(4-chlorophenyl)-7-fluoro-5-[1-(4-fluorooxan-4-yl)-1-hydroxypropyl]-1-[(2R)-2-hydroxypropoxy]-3-oxo-2,3-dihydro-1H-isoindol-2-yl]methyl}pyridine-3-carbonitrile]", "values": [{"measurement": "inhibition at 0.1 µM", "setting": "[1]", "result": 32, "unit": "%"}, {"measurement": "inhibition at 10 µM", "setting": "[2]; Homo sapiens", "result": 96, "unit": "%"}]}
{"smiles": "CCC(O)(c1cc(F)c2c(c1)C(=O)N(Cc1ccc(C#N)cn1)[C@@]2(OCCO)c1ccc(Cl)cc1)C1(F)CCOCC1", "note": "(stereo partly drawn) [Example 500, 6-{[(1R)-1-(4-chlorophenyl)-7-fluoro-5-[1-(4-fluorooxan-4-yl)-1-hydroxypropyl]-1-(2-hydroxyethoxy)-3-oxo-2,3-dihydro-1H-isoindol-2-yl]methyl}pyridine-3-carbonitrile]", "values": [{"measurement": "inhibition at 0.1 µM", "setting": "[1]", "result": 21, "unit": "%"}, {"measurement": "inhibition at 10 µM", "setting": "[2]; Homo sapiens", "result": 16, "unit": "%"}]}
{"smiles": "CCC(O)(c1cc(F)c2c(c1)C(=O)N(Cc1ccc(C#N)cn1)[C@@]2(OC1CC(O)C1)c1ccc(Cl)cc1)[C@H]1CC[C@H](O)CC1", "note": "(stereo partly drawn) [Example 520, 6-{[(1R)-1-(4-chlorophenyl)-7-fluoro-5-{1-hydroxy-1-[trans-4-hydroxycyclohexyl]propyl}-3-oxo-1-[cis-3-hydroxycyclobutoxy]-2,3-dihydro-1H-isoindol-2-yl]methyl}pyridine-3-carbonitrile]", "values": [{"measurement": "inhibition at 0.03 µM", "setting": "[1]", "result": 32, "unit": "%"}, {"measurement": "pIC50", "setting": "[2]", "result": 5.41}]}
{"smiles": "CC[C@](O)(c1cc(F)c2c(c1)C(=O)N(Cc1ncc(Cl)cn1)[C@@]2(O[C@H]1CCOC1)c1ccc(Cl)cc1)C1CCN(C)CC1", "note": "[Example 567, (3R)-3-(4-chlorophenyl)-2-[(5-chloropyrimidin-2-yl)methyl]-4-fluoro-6-[(1R)-1-hydroxy-1-(1-methylpiperidin-4-yl)propyl]-3-[(3S)-oxolan-3-yloxy]-2,3-dihydro-1H-isoindol-1-one]", "values": [{"measurement": "inhibition at 0.1 µM", "setting": "[1]", "result": 57, "unit": "%"}]}
